According to publication PMC9570967 (Molecules, 2022):
Entries after “also recorded” stand apart in the source; their conditions may differ.

Tests used:
[1] = biological target: T1, human δ-opioid receptor (OPRD1) (Homo sapiens, UniProt P41143); test: Forskolin-induced cAMP accumulation assay, DOR antagonist mode; settings: for DOR Antagonist %Imax ± SEM: versus EC50 of SNC80, normalized to naltrexone
[2] = biological target: T2, human κ-opioid receptor (OPRK1) (Homo sapiens, UniProt P41145); settings: versus EC90 of U50488H; normalized to nor-BNI
[3] = test system: squirrel monkeys; test: Antinociception: warm-water tail-withdrawal; format: in vivo, squirrel monkeys (Saimiri sciureus); settings: 52 °C water, cumulative dosing
Procedure: Male squirrel monkeys (Saimiri sciureus) were housed in a climate-controlled vivarium with a 12 h light/dark cycle (7 AM–7 PM) in the McLean Hospital Animal Care Facility (licensed by the U.S. Department of Agriculture and compliant with guidelines provided by the Committee on Care and Use of Laboratory Animals of the Institute of Laboratory Animals Resources, Commission on Life Sciences, National Research Council; 2011). Tail withdrawal latencies were assessed as described previously. Briefly, monkeys were seated in customized Plexiglas chairs that allowed their tails to hang freely. Tail withdrawal latencies were measured by immersing the subject’s tail in water held at 35 or 52 °C (temperatures were presented in a randomized order during successive test components). After obtaining a baseline tail withdrawal latency, complete dose response curves were generated in each subject using standard cumulative dosing procedures. Briefly, every 15 min after an injection tail-withdrawal latencies at each temperature were redetermined and subjects were injected with the next dose, such that the total (cumulative) dose was increased by ½ log10 units in each successive cycle. This procedure was repeated until either (a) the tail-withdrawal latency from 52 °C water reached the maximum allowable latency (10 sec), or (b) tail-withdrawal latency no longer increased with increases in dose of the test drug.
(§1) All statistical analyses and graphic representations were completed with GraphPad Prism version 9.3.0 (GraphPad Software, San Diego, CA, USA) using log transformed values of doses. Group means ± SEM tail withdrawal latencies (in sec) and minute volume ratios are plotted as a function of drug dose. Data were analyzed using One-way ANOVA with significance set at p < 0.05, followed by Dunnett’s multiple comparison test.

[4] = biological target: T1, human δ-opioid receptor (OPRD1); test: Forskolin-induced cAMP accumulation assay, DOR agonist mode; settings: for Emax: CHO-K1, read-out: DOR Agonist %Emax ± SEM
[5] = biological target: T2, human κ-opioid receptor (OPRK1); test: cell-based
[6] = biological target: T3, mouse mu opioid receptor (Mus musculus, UniProt P42866); test: Competition radioligand binding assay ([3H]naloxone, mMOR-CHO membranes); settings: 1.4 nM [3H]naloxone, read-out: [3H]NLX Binding Ki
T3 construct: expressed in transfected cells; host or cells: CHO (mMOR-CHO), membrane homogenates
Procedure: In vitro binding assays were performed using monocloned mouse mu opioid receptor expressing Chinese hamster ovary (CHO) cells (mMOR-CHO). mMOR-CHO cell culture and membrane homogenate preparation were performed as previously described. All assays were duplicated and repeated at least three times.
Competition binding assays were performed as previously described. […] Bound radioactive ligand was isolated by filtration through GF/B glass fiber filters and rinsed three times with ice-cold wash buffer (50 mM Tris-HCl, pH 7.2). Bound radioactivity was determined via liquid scintillation ounting. […] The IC50 values were determined by nonlinear regression analysis using GraphPad Prism 9 (GraphPad Software, San Diego, CA, USA) and converted to Ki values using the Cheng–Prusoff equation.

[7] = biological target: T3, mouse mu opioid receptor; test: [35S]GTPγS functional assay (mMOR-CHO membranes); format: biochemical; settings: for EC50: mMOR-CHO membranes, read-out: GTPgS EC50; for Emax: read-out: GTPgS % Emax of (DAMGO)
[8] = biological target: T2, human κ-opioid receptor (OPRK1); test: cell-based; remark: listed apart in the source
[9] = test system: squirrel monkeys; test: Respiratory depression: ventilatory response to hypercapnia (5% CO2 in air); format: in vivo, squirrel monkeys (Saimiri sciureus); settings: ratio of minute volumes in 5% CO2 and room air, cumulative dosing
Procedure: Ventilation measures were assessed as described previously. Briefly, squirrel monkeys were acclimated to a customized acrylic chamber (10″ d × 10″ w × 10″ h) that served as a whole-body plethysmograph (EMKA Technologies, Montreal, PQ, Canada). Gas (either air or a 5% CO2 in air mixture) was introduced to and extracted from the chamber at a constant flow rate of 5 L/min. Experimental sessions consisted of 4–6 consecutive 30 min cycles, each comprising a 20 min exposure to air followed by a 10 min exposure to 5% CO2. Drug effects were determined using cumulative dosing procedures, and injections were administered following each exposure to 5% CO2. Respiratory rate and tidal volume (mL/breath) were recorded over 1 min periods and were multiplied to provide minute volumes. Data from the last three minutes of each exposure to air or CO2 were averaged and used for analysis of drug effects on ventilation.
as §1

T1 sequence (P41143 whole entry): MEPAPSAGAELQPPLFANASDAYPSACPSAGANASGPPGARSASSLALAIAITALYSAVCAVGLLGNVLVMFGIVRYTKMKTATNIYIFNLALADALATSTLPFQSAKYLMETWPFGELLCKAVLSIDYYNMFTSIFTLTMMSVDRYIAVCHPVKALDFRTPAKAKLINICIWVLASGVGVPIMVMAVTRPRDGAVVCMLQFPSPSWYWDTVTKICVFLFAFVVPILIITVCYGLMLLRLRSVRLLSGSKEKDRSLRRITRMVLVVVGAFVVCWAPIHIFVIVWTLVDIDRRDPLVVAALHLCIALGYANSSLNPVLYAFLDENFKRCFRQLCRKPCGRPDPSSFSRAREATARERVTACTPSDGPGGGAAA
T2 sequence (P41145 whole entry): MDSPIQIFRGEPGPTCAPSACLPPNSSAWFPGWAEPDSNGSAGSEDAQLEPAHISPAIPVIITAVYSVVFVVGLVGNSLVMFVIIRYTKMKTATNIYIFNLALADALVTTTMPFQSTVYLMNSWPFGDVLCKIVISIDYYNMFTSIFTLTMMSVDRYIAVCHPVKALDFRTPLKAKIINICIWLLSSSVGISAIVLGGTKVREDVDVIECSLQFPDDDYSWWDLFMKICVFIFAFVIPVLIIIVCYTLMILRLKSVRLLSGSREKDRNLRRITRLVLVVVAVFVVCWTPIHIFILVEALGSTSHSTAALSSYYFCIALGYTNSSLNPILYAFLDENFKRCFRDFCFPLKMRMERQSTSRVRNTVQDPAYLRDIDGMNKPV
T3 sequence (P42866 whole entry): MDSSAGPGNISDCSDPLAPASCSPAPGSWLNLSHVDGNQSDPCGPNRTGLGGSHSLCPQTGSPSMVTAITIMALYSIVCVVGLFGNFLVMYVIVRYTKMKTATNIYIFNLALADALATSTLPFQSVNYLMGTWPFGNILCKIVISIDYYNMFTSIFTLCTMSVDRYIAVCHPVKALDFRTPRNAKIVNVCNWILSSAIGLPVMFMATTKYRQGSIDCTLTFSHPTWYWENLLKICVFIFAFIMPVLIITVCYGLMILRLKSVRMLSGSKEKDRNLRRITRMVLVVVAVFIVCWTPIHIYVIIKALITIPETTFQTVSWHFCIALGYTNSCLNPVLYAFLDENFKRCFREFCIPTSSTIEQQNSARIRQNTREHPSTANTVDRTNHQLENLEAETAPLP

## C=C[C@H]1[C@H]2CCC[C@]1(c1cccc(O)c1)CCN2CCc1ccccc1 [Compound 8, 3-((1R,5S,9R)-2-Phenethyl-9-vinyl-2-azabicyclo [3.3.1]nonan-5-yl)phenol]
[1]
  IC50: 0.113 ± 0.0436 µM
  DOR Antagonist %Imax ± SEM: 119.1 ± 15.5%
[2]
  KOR Antagonist %Imax ± SEM: 97.1 ± 9.2%
[3]
  Effect on tail withdrawal latency (antinociception): significantly increased tail withdrawal latency; also recorded: had antinociceptive effects
[4]
  EC50: > 10 µM
[5]
  IC50: 0.074 ± 0.0305 µM
[6]
  Ki: 0.0005 ± 5e-05 µM
[7]
  EC50: 0.00673 ± 0.00135 µM
  Emax: 20.1 ± 0.78%
[8]
  EC50: > 10 µM
[9]
  Effect on ventilatory ratio (respiratory depression): reduced the ability of 5% CO2 to stimulate increases in ventilation; also recorded: morphine-like respiratory depressant effects

## C=C[C@@H]1[C@H]2CCC[C@]1(c1cccc(O)c1)CCN2CCc1ccccc1 [Compound 9, 3-((1R,5S,9S)-2-Phenethyl-9-vinyl-2-azabicyclo [3.3.1]nonan-5-yl)phenol]
[2]
  KOR Antagonist %Imax ± SEM: 101.8 ± 19.1%
[3]
  Effect on tail withdrawal latency (antinociception): inconsistent effect of tail withdrawal latency; also recorded: antinociceptive effects in some, but not all subjects
[4]
  EC50: 0.057 ± 0.0214 µM
  Emax: 22.6%
[5]
  IC50: 0.0198 ± 0.0097 µM
[6]
  Ki: 0.00191 ± 0.00013 µM
[7]
  EC50: 0.037 ± 0.0155 µM
  Emax: 10.5 ± 0.82%
[8]
  EC50: > 10 µM
[9]
  Effect on ventilatory ratio (respiratory depression): did not alter ventilation; also recorded: did not produce morphine-like decreases in ventilatory ratio

## C=C[C@H]1[C@@H]2CCC[C@@]1(c1cccc(OC)c1)CCN2CCc1ccccc1 [Compound 13, (1S,5R,9R)-5-(3-Methoxyphenyl)-2-phenethyl-9-vinyl-2-azabicyclo [3.3.1]nonane]
[1]
  IC50: > 10 µM
[4]
  EC50: > 10 µM
[5]
  IC50: > 10 µM
[8]
  EC50: > 10 µM

## C=C[C@@H]1[C@@H]2CCC[C@@]1(c1cccc(O)c1)CCN2CCc1ccccc1 [Compound 14, 3-((1S,5R,9S)-2-Phenethyl-9-vinyl-2-azabicyclo [3.3.1]nonan-5-yl)phenol]
[2]
  KOR Antagonist %Imax ± SEM: 105.6 ± 4.6%
[4]
  EC50: 0.122 ± 0.0472 µM
  Emax: 40.6%
[5]
  IC50: 0.128 ± 0.0482 µM
[8]
  EC50: > 10 µM

## C=C[C@H]1[C@@H]2CCC[C@@]1(c1cccc(O)c1)CCN2CCc1ccccc1 [Compound 15, 3-((1S,5R,9R)-2-Phenethyl-9-vinyl-2-azabicyclo [3.3.1]nonan-5-yl)phenol]
[1]
  IC50: 0.144 ± 0.041 µM
  DOR Antagonist %Imax ± SEM: 201.4 ± 35.9%
[2]
  KOR Antagonist %Imax ± SEM: 104.9 ± 11.2%
[4]
  EC50: > 10 µM
[5]
  IC50: 0.0284 ± 0.0042 µM
[8]
  EC50: > 10 µM

## C/C=C\[C@H]1[C@H]2CCC[C@]1(c1cccc(O)c1)CCN2CCc1ccccc1 [Compound 17, 3-((1R,5S,9R)-2-Phenethyl-9-((Z)-prop-1-en-1-yl)-2-azabicyclo [3.3.1]nonan-5-yl)phenol]
[1]
  IC50: 0.113 ± 0.0198 µM
  DOR Antagonist %Imax ± SEM: 143.3 ± 11.9%
[2]
  KOR Antagonist %Imax ± SEM: 111.6 ± 7.9%
[3]
  Effect on tail withdrawal latency (antinociception): increased tail withdrawal latency; also recorded: consistent and significant antinociceptive effects
[4]
  EC50: > 10 µM
[5]
  IC50: 0.035 ± 0.0097 µM
[6]
  Ki: 0.00183 ± 0.00024 µM
[7]
  EC50: 0.00964 ± 0.0017 µM
  Emax: 18 ± 1.45%
[8]
  EC50: > 10 µM
[9]
  Effect on ventilatory ratio (respiratory depression): without significantly altering ventilation; also recorded: limited effects on ventilatory ratio

## C/C=C\[C@@H]1[C@H]2CCC[C@]1(c1cccc(O)c1)CCN2CCc1ccccc1 [Compound 18, 3-((1R,5S,9S)-2-Phenethyl-9-((Z)-prop-1-en-1-yl)-2-azabicyclo [3.3.1]nonan-5-yl)phenol]
[2]
  KOR Antagonist %Imax ± SEM: 114.8 ± 11.2%
[4]
  EC50: 0.00969 ± 0.00223 µM
  Emax: 74.5%
[5]
  IC50: 0.238 ± 0.0526 µM
[6]
  Ki: 0.00056 ± 7e-05 µM
[7]
  EC50: 0.00838 ± 0.00077 µM
  Emax: 75.3 ± 3.83%
[8]
  EC50: > 10 µM

## C/C=C\[C@H]1[C@@H]2CCC[C@@]1(c1cccc(O)c1)CCN2CCc1ccccc1 [Compound 20, 3-((1S,5R,9R)-2-Phenethyl-9-((Z)-prop-1-en-1-yl)-2-azabicyclo [3.3.1]nonan-5-yl)phenol]
[1]
  IC50: 0.00752 ± 0.00293 µM
  DOR Antagonist %Imax ± SEM: 142.5 ± 23.7%
[2]
  KOR Antagonist %Imax ± SEM: 126.7 ± 2.6%
[4]
  EC50: > 10 µM
[5]
  IC50: 0.00402 ± 0.00025 µM
[8]
  EC50: > 10 µM

## C/C=C\[C@@H]1[C@@H]2CCC[C@@]1(c1cccc(O)c1)CCN2CCc1ccccc1 [Compound 21, 3-((1S,5R,9S)-2-Phenethyl-9-((Z)-prop-1-en-1-yl)-2-azabicyclo [3.3.1]nonan-5-yl)phenol]
[2]
  KOR Antagonist %Imax ± SEM: 111.8 ± 2.2%
[4]
  EC50: 0.0605 ± 0.0037 µM
  Emax: 66.7%
[5]
  IC50: 0.163 ± 0.037 µM
[8]
  EC50: > 10 µM

## CC/C=C\[C@H]1[C@H]2CCC[C@]1(c1cccc(O)c1)CCN2CCc1ccccc1 [Compound 23, 3-((1R,5S,9R)-9-((Z)-But-1-en-1-yl)-2-phenethyl-2-azabicyclo [3.3.1]nonan-5-yl)phenol]
[1]
  IC50: 0.069 ± 0.0048 µM
  DOR Antagonist %Imax ± SEM: 166.6 ± 40.0%
[2]
  KOR Antagonist %Imax ± SEM: 109.5 ± 8.3%
[4]
  EC50: > 10 µM
[5]
  IC50: 0.328 ± 0.0969 µM
[8]
  EC50: > 10 µM

## CC/C=C\[C@@H]1[C@H]2CCC[C@]1(c1cccc(O)c1)CCN2CCc1ccccc1 [Compound 24, 3-((1R,5S,9S)-9-((Z)-But-1-en-1-yl)-2-phenethyl-2-azabicyclo [3.3.1]nonan-5-yl)phenol]
[1]
  IC50: 3.22 ± 0.572 µM
  DOR Antagonist %Imax ± SEM: 182.3 ± 56.4%
[2]
  KOR Antagonist %Imax ± SEM: 103.8 ± 9.2%
[4]
  EC50: > 10 µM
[5]
  IC50: 0.283 ± 0.0464 µM
[8]
  EC50: > 10 µM

## CC/C=C\[C@@H]1[C@@H]2CCC[C@@]1(c1cccc(O)c1)CCN2CCc1ccccc1 [Compound 26, 3-((1S,5R,9S)-9-((Z)-But-1-en-1-yl)-2-phenethyl-2-azabicyclo [3.3.1]nonan-5-yl)phenol]
[1]
  IC50: 0.52 ± 0.144 µM
  DOR Antagonist %Imax ± SEM: 226.1 ± 14.0%
[2]
  KOR Antagonist %Imax ± SEM: 96.2 ± 0.9%
[4]
  EC50: > 10 µM
[5]
  IC50: 0.0122 ± 0.0025 µM
[8]
  EC50: > 10 µM

## CC/C=C\[C@H]1[C@@H]2CCC[C@@]1(c1cccc(O)c1)CCN2CCc1ccccc1 [Compound 27, 3-((1S,5R,9R)-9-((Z)-But-1-en-1-yl)-2-phenethyl-2-azabicyclo [3.3.1]nonan-5-yl)phenol]
[1]
  IC50: 0.00822 ± 0.00244 µM
  DOR Antagonist %Imax ± SEM: 211.5 ± 24.7%
[2]
  KOR Antagonist %Imax ± SEM: 98.2 ± 2.3%
[4]
  EC50: > 10 µM
[5]
  IC50: 0.00079 ± 0.00028 µM
[8]
  EC50: > 10 µM

## CN1CC[C@]23c4c5ccc(O)c4O[C@H]2[C@@H](O)C=C[C@H]3[C@H]1C5 [Morphine, reference compound]
[3]
  Effect on tail withdrawal latency (antinociception): significantly increased tail withdrawal latency
